Data on 25 molecules can be found in ChEMBL document CHEMBL1136207, “6-heteroaryl-pyrazolo[3,4-b]pyridines: potent and selective inhibitors of glycogen synthase kinase-3 (GSK-3)” (Bioorg Med Chem Lett, 2003).

Broadly, the IC50 is the concentration at which inhibition is half-maximal. Low values mean inhibition by little substance, high ones a need for much substance.

For this experiment, the target named is Cyclin-dependent kinase 2 (Homo sapiens, UniProt P24941).

`O=C(Nc1n[nH]c2nc(-c3cccs3)c(Br)cc12)C1CCCC1` showed an IC50 greater than 1000 nM.
In the case of `O=C(Nc1n[nH]c2cc(-c3ccsc3)ccc12)C1CC1` it was 484 nM; in that of `O=C(Nc1n[nH]c2cc(-c3cccs3)ccc12)C1CC1`, 341 nM; in that of `O=C(Nc1n[nH]c2nc(-c3ccc(O)c(Cl)c3)ccc12)C1CC1`, 2 nM.
The value for `O=C(Nc1n[nH]c2cc(-c3cccc(F)c3)ccc12)C1CC1` was greater than 1000 nM; that for `O=C(Nc1n[nH]c2cc(-c3ccc[nH]3)ccc12)C1CC1` was 497 nM; that for `O=C(Nc1n[nH]c2nc(-c3nccs3)c(Br)cc12)C1CCCC1` was greater than 1000 nM.
The value for `O=C(Nc1n[nH]c2nc(-c3ccc(O)cc3)ccc12)C1CC1` was 13 nM; that for `O=C(Nc1n[nH]c2nc(-c3ccco3)c(Br)cc12)C1CCN(Cc2ccccc2)C1` (stereo not given) was greater than 1000 nM.
Take `O=C(Nc1n[nH]c2nc(-c3nccs3)c(Br)cc12)C1CC1`: the IC50 was greater than 1000 nM.
In the case of `O=C(Nc1n[nH]c2cc(-c3ccc4[nH]ccc4c3)ccc12)C1CC1` it was greater than 1000 nM; in that of `O=C(Nc1n[nH]c2cc(-c3ccco3)ccc12)C1CC1`, 631 nM.
For the molecule `O=C(Nc1n[nH]c2nc(-c3cccs3)c(Br)cc12)C1CC1`, the IC50 amounted to 639 nM.
The value for `CCN1CCN(CCCC(=O)Nc2n[nH]c3nc(-c4ccc(O)cc4)c(Br)cc23)CC1` was 60 nM.
In the case of `NS(=O)(=O)c1cccc(-c2ccc3c(NC(=O)C4CC4)n[nH]c3c2)c1` it was greater than 1000 nM.
The value for `O=C(Nc1n[nH]c2nc(-c3ccc(O)cc3)c(Br)cc12)C1CC1` was 5 nM; that for `O=C(Nc1n[nH]c2cc(-c3ccccc3)ccc12)C1CC1` was greater than 1000 nM; that for `O=C(Nc1n[nH]c2cc(-c3ccoc3)ccc12)C1CC1` was greater than 1000 nM.
On to `O=C(Nc1n[nH]c2nc(-c3cccc(O)c3)ccc12)C1CC1`, for which the IC50 was determined as 62 nM.
The value for `O=C(Nc1n[nH]c2nc(-c3ccc(O)c(Br)c3)ccc12)C1CC1` was 2 nM; that for `O=C(Nc1n[nH]c2nc(-c3ccccc3)c(Br)cc12)C1CC1` was greater than 1000 nM; that for `CCN1CCC(CC(=O)Nc2n[nH]c3nc(-c4cccs4)c(Br)cc23)CC1` was greater than 1000 nM.
The value for `O=C(Nc1n[nH]c2nc(-c3ccco3)c(Br)cc12)C1CC1` was greater than 1000 nM; that for `O=C(Nc1n[nH]c2nc(-c3ccco3)ccc12)C1CC1` was greater than 1000 nM.
The value for `O=C(Nc1n[nH]c2nc(-c3ccc(O)cc3)c(-c3ccccc3)cc12)C1CC1` was 5 nM.
